How the values were obtained:
Assay type in all cases: in vivo
Solanum nigrum (SOLNI) [1] = assay: Pre-emergence herbicidal glasshouse test on Solanum nigrum; conditions: for PRE Application SOLNI herbicidal damage (five point scale): pre-emergence, 1000 g/h, evaluated after 13 days
Procedure, shortened: (§1)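 Scored on a five-point scale (1 = 0-19% to 5 = 80-100% damage) 13 days after treatment. Application rate 1000 g/h in acetone/water (50:50) containing 0.5% Tween 20, sprayed one day post-sowing for pre-emergence or eight days for post-emergence; glasshouse at 24/16° C, 14 h light, 65% humidity.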

[2] = system: Ipomoea hederacea (IPOHE); assay: Pre-emergence herbicidal glasshouse test on Ipomoea hederacea; conditions: for PRE Application IPOHE herbicidal damage (five point scale): pre-emergence, 1000 g/h, evaluated after 13 days
Procedure, shortened: as §1

[3] = system: Amaranthus retoflexus (AMARE); assay: Pre-emergence herbicidal glasshouse test on Amaranthus retoflexus; conditions: for PRE Application AMARE herbicidal damage (five point scale): pre-emergence, 1000 g/h, evaluated after 13 days
Procedure, shortened: as §1

[4] = system: Echinochloa crus-galli (ECHCG); assay: Pre-emergence herbicidal glasshouse test on Echinochloa crus-galli; conditions: for PRE Application ECHCG herbicidal damage (five point scale): pre-emergence, 1000 g/h, evaluated after 13 days
Procedure, shortened: as §1

Setaria faberi (SETFA) [5] = assay: Pre-emergence herbicidal glasshouse test on Setaria faberi; conditions: for PRE Application SETFA herbicidal damage (five point scale): pre-emergence, 1000 g/h, evaluated after 13 days
Procedure, shortened: as §1

[6] = system: Alopecurus myosuroides (ALOMY); assay: Pre-emergence herbicidal glasshouse test on Alopecurus myosuroides; conditions: for PRE Application ALOMY herbicidal damage (five point scale): pre-emergence, 1000 g/h, evaluated after 13 days
Procedure, shortened: as §1

Solanum nigrum (SOLNI) [7] = assay: Post-emergence herbicidal glasshouse test on Solanum nigrum; conditions: for POST Application SOLNI herbicidal damage (five point scale): post-emergence, 1000 g/h, evaluated after 13 days
Procedure, shortened: as §1

[8] = system: Amaranthus retoflexus (AMARE); assay: Post-emergence herbicidal glasshouse test on Amaranthus retoflexus; conditions: for POST Application AMARE herbicidal damage (five point scale): post-emergence, 1000 g/h, evaluated after 13 days
Procedure, shortened: as §1

[9] = system: Ipomoea hederacea (IPOHE); assay: Post-emergence herbicidal glasshouse test on Ipomoea hederacea; conditions: for POST Application IPOHE herbicidal damage (five point scale): post-emergence, 1000 g/h, evaluated after 13 days
Procedure, shortened: as §1

[10] = system: Echinochloa crus-galli (ECHCG); assay: Post-emergence herbicidal glasshouse test on Echinochloa crus-galli; conditions: for POST Application ECHCG herbicidal damage (five point scale): post-emergence, 1000 g/h, evaluated after 13 days
Procedure, shortened: as §1

Setaria faberi (SETFA) [11] = assay: Post-emergence herbicidal glasshouse test on Setaria faberi; conditions: for POST Application SETFA herbicidal damage (five point scale): post-emergence, 1000 g/h, evaluated after 13 days
Procedure, shortened: as §1

[12] = system: Alopecurus myosuroides (ALOMY); assay: Post-emergence herbicidal glasshouse test on Alopecurus myosuroides; conditions: for POST Application ALOMY herbicidal damage (five point scale): post-emergence, 1000 g/h, evaluated after 13 days
Procedure, shortened: as §1

SMILES | PRE Application SOLNI herbicidal damage (five point scale) (Solanum nigrum (SOLNI) [1]) | PRE Application IPOHE herbicidal damage (five point scale) [2] | PRE Application AMARE herbicidal damage (five point scale) [3] | PRE Application ECHCG herbicidal damage (five point scale) [4] | PRE Application SETFA herbicidal damage (five point scale) (Setaria faberi (SETFA) [5]) | PRE Application ALOMY herbicidal damage (five point scale) [6] | POST Application SOLNI herbicidal damage (five point scale) (Solanum nigrum (SOLNI) [7]) | POST Application AMARE herbicidal damage (five point scale) [8] | POST Application IPOHE herbicidal damage (five point scale) [9] | POST Application ECHCG herbicidal damage (five point scale) [10] | POST Application SETFA herbicidal damage (five point scale) (Setaria faberi (SETFA) [11]) | POST Application ALOMY herbicidal damage (five point scale) [12] | other results
Cn1ncc(-c2ccc(Cl)cc2[S+](C)[O-])c(O)c1=O (stereo not drawn) [Compound 1.059] | 5 (5=80-100% damage) | 5 (5=80-100% damage) | 5 (5=80-100% damage) | 5 (5=80-100% damage) | 5 (5=80-100% damage) | 5 (5=80-100% damage) | 5 (5=80-100% damage) | 5 (5=80-100% damage) | 5 (5=80-100% damage) | 5 (5=80-100% damage) | 5 (5=80-100% damage) | 5 (5=80-100% damage) | 
CC(C)n1ncc(-c2c(Cl)cccc2Cl)c(O)c1=O [Compound 1.016] | 1 (1=0-19% damage) | 1 (1=0-19% damage) | 1 (1=0-19% damage) | 1 (1=0-19% damage) | 1 (1=0-19% damage) | 1 (1=0-19% damage) | 3 (3=40-59% damage) | 5 (5=80-100% damage) | 2 (2=20-39% damage) | 2 (2=20-39% damage) | 3 (3=40-59% damage) | 2 (2=20-39% damage) | 
Cn1ncc(-c2ccc(C#N)cc2S(C)(=O)=O)c(O)c1=O [Compound 1.141] | 5 (5=80-100% damage) | 5 (5=80-100% damage) | 5 (5=80-100% damage) | 5 (5=80-100% damage) | 5 (5=80-100% damage) | 5 (5=80-100% damage) | 5 (5=80-100% damage) | 5 (5=80-100% damage) | 5 (5=80-100% damage) | 5 (5=80-100% damage) | 5 (5=80-100% damage) | 5 (5=80-100% damage) | 
Cc1ccc(-c2c(C(F)(F)F)ccn(-c3cnn(C)c(=O)c3O)c2=O)cc1 [Compound 7.006] | 5 (5=80-100% damage) | 2 (2=20-39% damage) | 5 (5=80-100% damage) | 5 (5=80-100% damage) | 4 (4=60-79% damage) | 3 (3=40-59% damage) | 5 (5=80-100% damage) | 4 (4=60-79% damage) | 3 (3=40-59% damage) | 5 (5=80-100% damage) | 3 (3=40-59% damage) | 3 (3=40-59% damage) | 
COCc1nc(C(F)(F)F)ccc1-c1cnn(C)c(=O)c1O [Compound 1.073] | 5 (5=80-100% damage) | 2 (2=20-39% damage) | 5 (5=80-100% damage) | 5 (5=80-100% damage) | 5 (5=80-100% damage) | 5 (5=80-100% damage) | 5 (5=80-100% damage) | 5 (5=80-100% damage) | 5 (5=80-100% damage) | 5 (5=80-100% damage) | 5 (5=80-100% damage) | 4 (4=60-79% damage) | 
Cn1ncc(-n2cccc(-c3ccc(C(F)(F)F)cc3)c2=O)c(O)c1=O [Compound 7.001] | 1 (1=0-19% damage) | 1 (1=0-19% damage) | 1 (1=0-19% damage) | 1 (1=0-19% damage) | 1 (1=0-19% damage) | 1 (1=0-19% damage) | 4 (4=60-79% damage) | 3 (3=40-59% damage) | 2 (2=20-39% damage) | 4 (4=60-79% damage) | 3 (3=40-59% damage) | 2 (2=20-39% damage) | 
Cn1ncc(-c2cnc(-c3cccc(F)c3)n(C3CCCCC3)c2=O)c(O)c1=O [Compound 10.003, 3-cyclohexyl-2-(3-fluorophenyl)-5-(5-hydroxy-1-methyl-6-oxo-pyridazin-4-yl)pyrimidin-4-one] |  |  |  |  |  |  |  |  |  |  |  |  | PRE Application SOLNI (Solanum nigrum (SOLNI) [1]; pre-emergence application, Solanum nigrum, damage score 1-5): 1 (1=0-19% damage); PRE Application IPOHE ([2]; pre-emergence application, Ipomoea hederacea, damage score 1-5): 1 (1=0-19% damage); PRE Application AMARE ([3]; pre-emergence application, Amaranthus retoflexus, damage score 1-5): 5 (5=80-100% damage); PRE Application ECHCG ([4]; pre-emergence application, Echinochloa crus-galli, damage score 1-5): 1 (1=0-19% damage); PRE Application SETFA (Setaria faberi (SETFA) [5]; pre-emergence application, Setaria faberi, damage score 1-5): 1 (1=0-19% damage); PRE Application ALOMY ([6]; pre-emergence application, Alopecurus myosuroides, damage score 1-5): 1 (1=0-19% damage); POST Application SOLNI (Solanum nigrum (SOLNI) [7]; post-emergence application, Solanum nigrum, damage score 1-5): 5 (5=80-100% damage); POST Application AMARE ([8]; post-emergence application, Amaranthus retoflexus, damage score 1-5): 5 (5=80-100% damage); POST Application IPOHE ([9]; post-emergence application, Ipomoea hederacea, damage score 1-5): 4 (4=60-79% damage); POST Application ECHCG ([10]; post-emergence application, Echinochloa crus-galli, damage score 1-5): 5 (5=80-100% damage); POST Application SETFA (Setaria faberi (SETFA) [11]; post-emergence application, Setaria faberi, damage score 1-5): 4 (4=60-79% damage); POST Application ALOMY ([12]; post-emergence application, Alopecurus myosuroides, damage score 1-5): 1 (1=0-19% damage)
Cc1c(-c2c(C#N)nn(C)c(=O)c2O)ccc(S(C)(=O)=O)c1C1=NOCC1 [Compound 2.025] | 5 (5=80-100% damage) | 5 (5=80-100% damage) | 5 (5=80-100% damage) | 1 (1=0-19% damage) | 1 (1=0-19% damage) | 1 (1=0-19% damage) | 5 (5=80-100% damage) | 5 (5=80-100% damage) | 4 (4=60-79% damage) | 4 (4=60-79% damage) | 1 (1=0-19% damage) | 2 (2=20-39% damage) | 
Cn1ncc(-n2ccc(-c3ccc(C(F)(F)F)cc3)cc2=O)c(O)c1=O [Compound 1.023] | 1 (1=0-19% damage) | 1 (1=0-19% damage) | 5 (5=80-100% damage) | 1 (1=0-19% damage) | 4 (4=60-79% damage) | 2 (2=20-39% damage) | 2 (2=20-39% damage) | 3 (3=40-59% damage) | 1 (1=0-19% damage) | 1 (1=0-19% damage) | 4 (4=60-79% damage) | 2 (2=20-39% damage) | 
Cn1ncc(-c2ccc(S(C)(=O)=O)c(OCC(F)(F)F)c2Cl)c(O)c1=O [Compound 1.137] | 3 (3=40-59% damage) | 1 (1=0-19% damage) | 2 (2=20-39% damage) | 1 (1=0-19% damage) | 1 (1=0-19% damage) | 1 (1=0-19% damage) | 5 (5=80-100% damage) | 5 (5=80-100% damage) | 5 (5=80-100% damage) | 5 (5=80-100% damage) | 5 (5=80-100% damage) | 1 (1=0-19% damage) | 
